The text below walks through data of ChEMBL document CHEMBL1201862, “PubChem BioAssay data set” (2004).

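How tested: cells in 96-well plates exposed to compound for 48 hours at five concentrations. GI50 marks 50% less growth.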 Activity calls are given as the source filed them. Cut-off read from the data, not from the text of the source: active = GI50 up to about 1.1 µM and inactive = higher. A value given as a limit tells only on which side of the number the result lay.

Some test systems named below: A498; ACHN; CAKI-1; HCC 2998; HOP-92; IGROV-1; Malme-3M; NCI/ADR-RES; OVCAR-3; OVCAR-4; PC-3; SK-MEL-5; SN12C; SNB-19; SNB-75; U-251; UACC-257; UO-31; Hs-578T.
What all share (assay): NCI-60 cell line screen, 48 h

In the case of `Oc1ccc(-c2c3c(nc4c2CCc2ccc(Br)cc2-4)-c2cc(Br)ccc2CC3)cc1`, the GI50 was 23.4 µM (inactive) in the experiment on A498; 20.7 µM (inactive) in the experiment on ACHN; 17.7 µM (inactive) in the experiment on CAKI-1; 20.7 µM (inactive) in the experiment with HCC 2998; 16 µM (inactive) in the experiment on HOP-92; 17 µM (inactive) in the experiment with IGROV-1. In addition, the GI50 was 25.8 µM (inactive) in the experiment with Malme-3M; 23 µM (inactive) in the experiment with NCI/ADR-RES; 15.1 µM (inactive) in the experiment with OVCAR-3; 22.3 µM (inactive) with OVCAR-4; 17.9 µM (inactive) with PC-3; 20.7 µM (inactive) in the experiment with SK-MEL-5. The GI50 with SN12C is 20 µM (inactive); in the experiment with SNB-19, 23.6 µM (inactive); in the experiment with SNB-75, 23.9 µM (inactive); in the experiment with U-251, 17.5 µM (inactive); in the experiment on UACC-257, 27 µM (inactive); in the experiment with UO-31 it was 18.7 µM (inactive).
On to `COc1ccc(-n2c(-c3ccccc3)cc(-c3cccs3)c2-c2cccs2)cc1`, for which the GI50 with A498, with ACHN, in the experiment on CAKI-1, in the experiment on HCC 2998, in the experiment on HOP-92 and with Hs-578T was > 100 µM (inactive) throughout. Besides, the GI50 was > 100 µM (inactive) with IGROV-1; > 100 µM (inactive) with NCI/ADR-RES; > 100 µM (inactive) with OVCAR-3; 56.6 µM (inactive) in the experiment with OVCAR-4; > 100 µM (inactive) in the experiment on SK-MEL-5; > 100 µM (inactive) with SN12C. Further, the GI50 is 88.9 µM (inactive) in the experiment with SNB-75, > 100 µM (inactive) in the experiment with U-251, > 100 µM (inactive) in the experiment on UACC-257 and > 100 µM (inactive) in the experiment with UO-31.
As to `N#CC1C(=O)NC(=O)C(C#N)C1c1ccc(Cl)c(Cl)c1` (stereo not given), the GI50 with ACHN was 22.4 µM (inactive); with CAKI-1, 22.4 µM (inactive); with HOP-92, 37.4 µM (inactive); with Hs-578T, 23.1 µM (inactive); in the experiment on IGROV-1, 18.1 µM (inactive); in the experiment on Malme-3M it was > 100 µM (inactive). In addition, the GI50 in the experiment on NCI/ADR-RES is 28 µM (inactive); in the experiment on OVCAR-3, 24.2 µM (inactive); in the experiment on OVCAR-4 it was 81.8 µM (inactive); in the experiment on PC-3, 28.2 µM (inactive); with SK-MEL-5, 20.9 µM (inactive); in the experiment with SN12C it was < 0.01 µM (active). Moreover, the GI50 in the experiment on SNB-19 was 91.2 µM (inactive); in the experiment with SNB-75 it was 25.2 µM (inactive); in the experiment with U-251, 23.7 µM (inactive); in the experiment on UACC-257, 35.9 µM (inactive); with UO-31, 16.5 µM (inactive).
Turning to `Cn1cc(C2(C)CC(C)(C)c3c2n(C)c2ccccc32)c2ccccc21` (stereo not given), the GI50 was > 100 µM (inactive) with A498; > 100 µM (inactive) in the experiment on CAKI-1; 52.4 µM (inactive) in the experiment on HCC 2998; > 100 µM (inactive) in the experiment on HOP-92; > 100 µM (inactive) in the experiment with IGROV-1; > 100 µM (inactive) in the experiment with Malme-3M. Further, the GI50 in the experiment on OVCAR-3 is 64 µM (inactive); in the experiment on SK-MEL-5 it was 69.3 µM (inactive); with SN12C, > 100 µM (inactive); in the experiment with SNB-19, > 100 µM (inactive); in the experiment with SNB-75, > 100 µM (inactive); in the experiment on U-251 it was > 100 µM (inactive). Further, the GI50 was > 100 µM (inactive) in the experiment with UACC-257 and 92.7 µM (inactive) with UO-31.
For `CCn1c2ccccc2c2cc(/N=N\c3ccc(C#N)cc3)ccc21`, the GI50 in the experiment with A498 is 25.8 µM (inactive); with ACHN it was > 100 µM (inactive); in the experiment with CAKI-1, 20.4 µM (inactive); in the experiment on HOP-92 it was 25.3 µM (inactive); in the experiment with Hs-578T, 42.1 µM (inactive); in the experiment on IGROV-1, 32.5 µM (inactive). Further, the GI50 was 18.7 µM (inactive) in the experiment with Malme-3M; > 100 µM (inactive) in the experiment with OVCAR-3; 98.6 µM (inactive) with OVCAR-4; > 100 µM (inactive) with PC-3; 50.7 µM (inactive) with SK-MEL-5; > 100 µM (inactive) with SN12C. For the same molecule, the GI50 in the experiment on SNB-19 was 19.4 µM (inactive); in the experiment with SNB-75, 30.4 µM (inactive); with U-251 it was 29.8 µM (inactive); with UACC-257, 58.9 µM (inactive); in the experiment on UO-31 it was 75.7 µM (inactive).
Consider `O=C(OCC(Cl)(Cl)Cl)O[C@@H]1CCCC1(c1ccccc1)c1ccccc1`, for which the GI50 with ACHN was > 100 µM (inactive); in the experiment on CAKI-1, > 100 µM (inactive); in the experiment on HCC 2998, 45.4 µM (inactive); in the experiment on IGROV-1, > 100 µM (inactive); in the experiment with NCI/ADR-RES it was > 100 µM (inactive); in the experiment with OVCAR-4 it was > 100 µM (inactive). In addition, the GI50 with PC-3 is 37.5 µM (inactive); in the experiment with SK-MEL-5, 35.9 µM (inactive); in the experiment on SN12C, > 100 µM (inactive); in the experiment with SNB-19 it was > 100 µM (inactive); in the experiment on SNB-75, > 100 µM (inactive); with U-251, > 100 µM (inactive). For the same molecule, the GI50 with UACC-257 was 67.8 µM (inactive); in the experiment on UO-31 it was > 100 µM (inactive).
Consider `C=C1c2nc3ccccc3n2C=C(c2ccc(OC)cc2)N1c1ccc(OC)cc1`, for which the GI50 in the experiment with A498 was 17.9 µM (inactive); with ACHN it was 7.16 µM (inactive); in the experiment on CAKI-1 it was 4.62 µM (inactive); in the experiment with HCC 2998 it was 20 µM (inactive); in the experiment with HOP-92, 15.6 µM (inactive); in the experiment on IGROV-1, 10.6 µM (inactive). Besides, the GI50 in the experiment on Malme-3M is 11 µM (inactive); in the experiment on NCI/ADR-RES, 5.26 µM (inactive); in the experiment on OVCAR-3, 8.18 µM (inactive); with OVCAR-4, 7.78 µM (inactive); in the experiment with PC-3, 19 µM (inactive); in the experiment on SK-MEL-5, 7.45 µM (inactive). Besides, the GI50 in the experiment on SN12C was 17.8 µM (inactive); in the experiment on SNB-19, 4.25 µM (inactive); in the experiment with SNB-75, 5.61 µM (inactive); with U-251, 9.71 µM (inactive); with UACC-257 it was 34 µM (inactive); in the experiment with UO-31 it was 12.5 µM (inactive).
As for `CC(C)OP(=O)(c1ccccc1)c1ccc2c(c1)OCCOCCOCCOCCO2` (stereo not given), the GI50 in the experiment on A498, with ACHN, with HCC 2998, in the experiment on Hs-578T, in the experiment with IGROV-1 and with Malme-3M was > 100 µM (inactive) each time. Further, the GI50 in the experiment with PC-3, in the experiment on SK-MEL-5, with SN12C, in the experiment with SNB-19, in the experiment with SNB-75 and in the experiment with UACC-257 was > 100 µM (inactive) each time. Besides, the GI50 with UO-31 was > 100 µM (inactive).
In the case of `CC12CCC(C)(c3cc(O)c(O)cc31)c1cc(O)c(O)cc12`, the GI50 with ACHN is 16.1 µM (inactive); in the experiment on CAKI-1, 11.2 µM (inactive); in the experiment on HCC 2998, 17.5 µM (inactive); with HOP-92 it was 10.7 µM (inactive); in the experiment with IGROV-1 it was 20.3 µM (inactive); in the experiment with Malme-3M, 18.3 µM (inactive). The GI50 in the experiment on OVCAR-3 was 17.8 µM (inactive); in the experiment with OVCAR-4, 14.6 µM (inactive); in the experiment with SK-MEL-5, 17.7 µM (inactive); with SN12C, 21.8 µM (inactive); with SNB-19, 15.5 µM (inactive); with SNB-75 it was 11.6 µM (inactive). Moreover, the GI50 in the experiment on UACC-257 was 15.3 µM (inactive); with UO-31 it was 19.8 µM (inactive).
`C=C1C(=O)OC2C1CC[C@H](C)C1(O)C(O)CC(=O)[C@@]21C` (stereo not given in full): the GI50 in the experiment with A498 is 10 µM (inactive); in the experiment on ACHN, 19.5 µM (inactive); with CAKI-1, 27.7 µM (inactive); with HCC 2998, 24 µM (inactive); in the experiment with HOP-92, 27.7 µM (inactive); in the experiment with IGROV-1 it was 28.8 µM (inactive). Also, the GI50 is 17.3 µM (inactive) in the experiment with Malme-3M; 21.2 µM (inactive) in the experiment on OVCAR-3; 16.7 µM (inactive) with SK-MEL-5; 22 µM (inactive) with SN12C; 52 µM (inactive) in the experiment with SNB-19; 24.7 µM (inactive) in the experiment with SNB-75. The GI50 in the experiment with U-251 was 49.8 µM (inactive); with UACC-257, 14.4 µM (inactive); with UO-31, 28.6 µM (inactive).
For `COc1cc2c(c(OC)c1OC)-c1ccc(SC)c(=O)cc1[C@@H](NC(=O)c1ccc(F)cc1)CC2`, the GI50 was 0.0399 µM (active) in the experiment with A498; 0.0467 µM (active) with ACHN; 0.0284 µM (active) in the experiment on HCC 2998; 0.0281 µM (active) with HOP-92; 0.0594 µM (active) with IGROV-1; 0.0615 µM (active) in the experiment on Malme-3M. Moreover, the GI50 was 0.0183 µM (active) in the experiment with OVCAR-3; 6.59 µM (inactive) with OVCAR-4; 0.0384 µM (active) with SN12C; 0.07 µM (active) in the experiment on SNB-75; 0.0428 µM (active) in the experiment with U-251; < 0.01 µM (active) in the experiment on UACC-257. For the same molecule, the GI50 in the experiment with UO-31 was < 0.01 µM (active).
Consider `O=C1/C(=C/c2ccc(Cl)cc2)Oc2cc(O)ccc21` [6-HYDROXY-4'-CHLORO AURONE], for which the GI50 with ACHN was 28.1 µM (inactive); in the experiment on CAKI-1 it was > 10 µM (inactive); with HCC 2998 it was 39.3 µM (inactive); in the experiment on Hs-578T, 14.7 µM (inactive); in the experiment with IGROV-1 it was 33.4 µM (inactive); with NCI/ADR-RES, 24.9 µM (inactive). Moreover, the GI50 in the experiment with OVCAR-3 was 34.7 µM (inactive); in the experiment on OVCAR-4 it was 47.5 µM (inactive); with PC-3, 30.2 µM (inactive); with SK-MEL-5, 23.4 µM (inactive); in the experiment with SN12C, 29.8 µM (inactive); in the experiment with SNB-19, 26.6 µM (inactive). Moreover, the GI50 in the experiment with SNB-75 was 31.6 µM (inactive); in the experiment on U-251, 26.5 µM (inactive); in the experiment on UACC-257, 31.2 µM (inactive); in the experiment on UO-31 it was 20.5 µM (inactive).
Turning to `CC1(C)CC(O)CC(C)(C)N1O` [TEMPOL HYDROXYLAMINE], the GI50 in the experiment with A498, in the experiment with ACHN, in the experiment on CAKI-1, in the experiment on HCC 2998, in the experiment on IGROV-1 and in the experiment on Malme-3M was > 100 µM (inactive) in each case. In addition, the GI50 was > 100 µM (inactive) with NCI/ADR-RES; 68.1 µM (inactive) in the experiment on OVCAR-3; > 100 µM (inactive) in the experiment on PC-3; > 100 µM (inactive) in the experiment with SK-MEL-5; > 100 µM (inactive) in the experiment on SN12C; > 100 µM (inactive) in the experiment with SNB-19. The GI50 in the experiment with SNB-75, in the experiment with UACC-257 and with UO-31 was > 100 µM (inactive) in each case.
